According to the supplement of paper PMC10307832:

What was measured:
Test in all cases: relative viability (nuclei count vs DMSO), 5 days (fraction); higher = more cells survive
[1] = compound: CC[C@@H](C)CNCC(=O)N1CCC2=C([C@@H]1COC3=CC=CC(=C3)C)C=CS2 [RU-SKI 43] + CCNC(=O)c1noc(-c2cc(C(C)C)c(O)cc2O)c1-c1ccc(CN2CCOCC2)cc1 [Luminespib] (partner 0.01 µM)
Summary of the method: (§1)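 Relative viability divides the nuclei count in treated wells by that in vehicle wells. Lung cancer cell lines were seeded in 1536-well plates, dosed by pin tool the next day, and fixed and stained after 5 days in one step with final 0.05% Triton X-100, 1% formaldehyde and 1 ug/ml Hoechst. Dosing was a single drug or a fixed anchor-drug dose plus five library-drug doses (not always all listed) in √10 steps, and values are medians of duplicate plates imaged at 4×.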

[2] = compound: CC[C@@H](C)CNCC(=O)N1CCC2=C([C@@H]1COC3=CC=CC(=C3)C)C=CS2 [RU-SKI 43] + CS(=O)(=O)CCNCc1ccc(-c2ccc3ncnc(Nc4ccc(OCc5cccc(F)c5)c(Cl)c4)c3c2)o1 [Lapatinib] (partner 2 µM)
Summary of the method: as §1

[3] = compound: CCc1c2c(nc3ccc(OC(=O)N4CCC(N5CCCCC5)CC4)cc13)-c1cc3c(c(=O)n1C2)COC(=O)[C@]3(O)CC [Irinotecan] + CC1(C)CCC(c2ccc(Cl)cc2)=C(CN2CCN(c3ccc(C(=O)NS(=O)(=O)c4ccc(N[C@H](CCN5CCOCC5)CSc5ccccc5)c(S(=O)(=O)C(F)(F)F)c4)cc3)CC2)C1 [Navitoclax] (partner 0.5 µM)
Summary of the method: as §1

[4] = compound: Cn1cc(-c2cnc3ccc4ccc(CS(=O)(=O)NCc5ccccn5)cc4c(=O)c3c2)cn1 [MK-8033] + COc1cccc2cc(-c3nc([C@H]4CC[C@H](C(=O)O)CC4)n4ncnc(N)c34)[nH]c12 [OSI-027] (partner 0.5 µM)
Summary of the method: as §1

Cell Line	relative viability ([1]; first compound 0.1 µM)	relative viability ([1]; first compound 0.3162 µM)	relative viability ([1]; first compound 1 µM)	relative viability ([1]; first compound 3.162 µM)	relative viability ([1]; first compound 10 µM)	relative viability ([2]; first compound 0.1 µM)	relative viability ([2]; first compound 0.3162 µM)	relative viability ([2]; first compound 1 µM)	relative viability ([2]; first compound 3.162 µM)	relative viability ([2]; first compound 10 µM)	relative viability ([3]; first compound 0.6325 µM)	relative viability ([3]; first compound 2 µM)	relative viability ([3]; first compound 6.325 µM)	relative viability ([3]; first compound 20 µM)	relative viability ([4]; first compound 0.02 µM)	relative viability ([4]; first compound 0.06325 µM)	relative viability ([4]; first compound 0.2 µM)	relative viability ([4]; first compound 0.6325 µM)	relative viability ([4]; first compound 2 µM)
HOP-62	1	1.29	1.07	0.984	1.04	0.973	1.28	0.883	1.03	0.877	0.624	0.598	0.176	0.177	0.83	0.821	0.756	0.84	0.896
NCI-H520	0.191	0.18	0.257	0.209	0.216	0.897	0.986	0.996	0.951	0.756	0.851	0.634	0.288	0.227	0.256	0.287	0.302	0.25	0.222
NCI-H1734	0.177	0.17	0.223	0.192	0.168	1.08	1.08	1.1	1.08	0.998	0.618	0.376	0.156	0.188	0.59	0.508	0.612	0.632	0.547
NCI-H1650	0.185	0.191	0.226	0.205	0.206	0.696	0.81	0.885	0.858	0.637	1.07	0.808	0.394	0.316	0.677	0.404	0.568	0.644	0.485
NCI-H2170	0.751	0.73	0.73	0.755	0.67	0.259	0.241	0.292	0.273	0.256	0.52	0.348	0.308	0.192	0.682	0.639	0.7	0.732	0.707
NCI-H1975	0.199	0.172	0.229	0.157	0.25	0.968	1.32	0.867	0.853	1.02	1.06	1.11	0.411	0.167	0.692	0.645	0.563		0.571
NCI-H1437	1.07	1.26	1.15	1.1	1.04	0.904	1.08	0.907	1.06	0.746	0.75	0.575	0.308	0.214	1.03	0.849	0.808	0.839	0.83
A-427	0.851	1.2	1	0.668	0.789	1.01	1.22	1.1		1		0.222	0.215	0.172	0.539	0.463	0.431	0.527	0.4
NCI-H2405	0.639	0.474	0.543	0.736	0.486	1.01	0.964	1.03	1.04	0.956		0.697	0.212	0.091	0.595	0.538	0.594	0.604	0.604
SK-MES-1	0.761	0.854	0.818	0.929	0.75	0.471	0.49	0.519	0.51	0.422	1.29	1.22	0.226	0.208	0.621	0.592	0.566	0.605	0.535
LC-2-ad	0.987	1.1	1	1.04	0.956	1.05	0.969	1	0.976	0.93	0.287	0.282	0.169	0.167	0.806	0.91		0.884	0.789
NCI-H1944	0.643	0.751	0.832	0.819	0.662	0.825	0.793	0.864	0.86	0.817	0.653	0.26	0.195	0.205	0.436	0.292	0.4	0.4	0.404
NCI-H322M	0.858	0.932	0.877	0.884	0.727	0.586	0.635	0.671	0.635	0.604	0.733	0.453	0.348	0.338	0.568	0.442	0.598	0.604	0.524
HCC-44	1.02		1.16	1.02	0.894	1.12	1.02	1.15	1.04	0.995	0.904	0.232	0.231	0.27	0.472	0.508	0.465	0.605	0.522
HCC-827	0.77	0.795	0.588	0.612	0.679	0.189	0.197	0.211	0.213	0.162	0.591	0.278	0.244	0.237	0.774		0.735	0.801	0.758
SW 1573	0.223	0.203	0.246	0.154	0.308	1.27	1.11	1.07	1.11	1.16	0.694	0.601	0.139	0.156	0.818	0.529	0.544	0.603	0.513
